Data on five compounds can be found in paper PMC10054465, “Design, Synthesis, and Antiviral Activities of New Benzotriazole-Based Derivatives” (Pharmaceuticals, 2023).

Entries after “also recorded” stand apart in the source; their conditions may differ. Where two headings read alike, the source gives them in different places.

The subject of one data set is CVB. The conditions noted are these: cited from earlier work.
The next data set relates to VSV. The data set is described as follows: microbe, parasite or virus in culture. The data set is classed as cell-based. Conditions: Vesicular stomatitis virus, Vero 76, read-out: VSV EC50.
In the next data set the test system is VV. The data set is described as follows: microbe, parasite or virus in culture. The data set is classed as cell-based. Conditions: Orthopoxvirus vaccinia, Vero 76, read-out: VV EC50.
The subject of a further data set is YFV. The data set is described as follows: microbe, parasite or virus in culture. The data set is classed as cell-based. Conditions: Yellow fever virus, BHK-21, read-out: YFV EC50.
For another data set, the system named is BVDV. The data set is described as follows: microbe, parasite or virus in culture. The data set is classed as cell-based. Conditions: Bovine viral diarrhea virus isolates and strains, MDBK, read-out: BVDV EC50.
Another data set concerns Sb-1. The data set is described as follows: microbe, parasite or virus in culture. The conditions noted are these: Enterovirus C, Vero 76, read-out: Sb-1 EC50. The data set is classed as cell-based, human enterovirus C (poliovirus type-1).
Another data set deals with HSV-1. The data set is described as follows: microbe, parasite or virus in culture. The data set is classed as cell-based, human herpesvirus 1. Conditions: Human alphaherpesvirus 1, Vero 76, read-out: HSV-1 EC50.
A short description of data set [1]: Cytotoxicity in mock-infected BHK-21 monolayers (MTT). The conditions noted are these: Syrian hamster (Mesocricetus auratus), BHK-21 cell monolayers, mock-infected.
For another data set, the system named is Reo-1. The data set is described as follows: microbe, parasite or virus in culture. The conditions noted are these: Reovirus sp., BHK-21, read-out: Reo-1 EC50. The data set is classed as cell-based, Reovirus type-1.
The nature of data set [2]: Cytotoxicity in mock-infected Vero-76 monolayers. The conditions noted are these: African green monkey (Cercopithecus aethiops).
A further data set relates to RSV. The data set is described as follows: microbe, parasite or virus in culture. The data set is classed as cell-based. Conditions: human respiratory syncytial virus, Vero 76, read-out: RSV EC50.
In data set [3] the test system is CVB5. The data set is described as follows: microbe, parasite or virus in culture. The data set is classed as cell-based, human enterovirus B (coxsackievirus B5). The conditions noted are these: Enterovirus B, CVB5, Vero 76, read-out: CVB5 EC50.
The nature of data set [4]: Cytotoxicity in mock-infected MDBK cells (MTT). Conditions: cattle (Bos taurus), mock-infected.
Data set [5] relates to CVB5. The data set is described as follows: Time of addition assay. The data set is classed as cell-based, human enterovirus B (coxsackievirus B5). The conditions noted are these: 20 µM.
Data set [6] deals with CVB5. The data set is described as follows: Cell pre-treatment assay (viral yield by plaque assay). The data set is classed as cell-based, human enterovirus B (coxsackievirus B5). The conditions noted are these: Vero-76 pre-treated 2 h with 20 µM, then CVB5; not treated control 3 × 10^5 PFU/mL.
In a further data set the test system is CVB5 virions. The data set is described as follows: Virucidal activity assay. The data set is classed as cell-based, human enterovirus B (coxsackievirus B5). The conditions noted are these: 20 µM, 4 °C or 37 °C.
[7] abbreviates: Vero-76 cell monolayers, mock-infected.
Where [8] appears, read: African green monkey (Cercopithecus aethiops).

A word on the EC50: it is the concentration that produces a half-maximal response. By CC50 is commonly meant the concentration at which the toxic effect on the cells reaches its halfway point. As a reminder, the melting point is the temperature of the solid-liquid transition.

For `O=C(CCC(=O)Nc1ccc(-n2nnc3cc(Cl)c(Cl)cc32)cc1)Nc1ccc(-n2nnc3cc(Cl)c(Cl)cc32)cc1` [A, N1,N4-bis(4-(5,6-dichloro-1H-benzo[d][1,2,3]triazol-1-yl)phenyl)succinamide], the “activity against CVB (in words)” value in the data set on CVB was “not active”.
Consider `O=C(Nc1cccc(Cn2nnc3cc(Cl)c(Cl)cc32)c1)c1ccc(Cl)cc1` [43a, N-(3-((5,6-dichloro-1H-benzo[d][1,2,3]triazol-1-yl)methyl)phenyl)-4-chlorobenzamide], for which the concentration giving a half-maximal response (EC50) in the data set on VSV, in the data set on VV, in the data set with YFV, in the data set on BVDV, in the data set with Sb-1 and in the data set with HSV-1 was more than 100 µM throughout. Besides, the EC50 is more than 100 µM in the data set with Reo-1, more than 9.2 µM with RSV and 9 ± 1.6 µM in the data set with CVB5 [3]. Moreover, the CC50 in data set [1] was more than 100 µM; in [2] (setting [7]), more than 100 µM; in data set [2] (Vero-76 cells), 9.2 µM; in [4], more than 100 µM. The “TEER values versus control (in words)” value in the data set with Caco-2 cell monolayers is given as “did not significantly differ from control values”.
Take `O=C(CCC(=O)Nc1ccc(Cn2nnc3cc(Cl)c(Cl)cc32)cc1)Nc1ccc(Cn2nnc3cc(Cl)c(Cl)cc32)cc1` [B, N1,N4-bis(4-((5,6-dichloro-1H-benzo[d][1,2,3]triazol-1-yl)methyl)phenyl)succinamide]: in the data set with CVB, the EC50 is 23 µM.
Compound `Nc1ccc(Cn2nc3cc(F)c(F)cc3n2)cc1` [11d] came in with a melting point of 149 to 150 °C. Besides, the EC50 in the data set on VSV is more than 100 µM. Moreover, the half-maximal effective concentration (EC50) with VV is more than 100 µM. For the same compound, in the data set on YFV, the EC50 was more than 100 µM. Besides, the half-maximal effective concentration (EC50) in the data set with BVDV was more than 100 µM. In addition, the EC50 in the data set on Sb-1 is more than 100 µM. For the same compound, the EC50 in the data set on HSV-1 was more than 100 µM. The compound also came in with a half-maximal cytotoxic concentration (CC50) in [1] of more than 100 µM. Besides, in the data set on Reo-1, the EC50 is more than 100 µM. In [2] (setting [7]), this compound displayed a cytotoxic concentration (CC50) of more than 100 µM. The 50% effective concentration (EC50) with RSV was more than 100 µM. Besides, in the data set with CVB5 [3], the concentration giving a half-maximal response (EC50) is 7.6 ± 1.9 µM. The CC50 in data set [4] is more than 100 µM.
Regarding `CC(C)(C)C(=O)Nc1ccc(Cn2nnc3c(F)cccc32)cc1` [18e, N-(4-((4-fluoro-1H-benzo[d][1,2,3]triazol-1-yl)methyl)phenyl)pivalamide], the half-maximal effective concentration (EC50) is more than 100 µM with VSV; more than 100 µM in the data set with VV; more than 100 µM in the data set on YFV; more than 100 µM in the data set on BVDV; more than 100 µM in the data set on Sb-1; 52 ± 9.2 µM in the data set on HSV-1. The half-maximal effective concentration (EC50) is more than 100 µM in the data set with Reo-1, more than 9 µM in the data set with RSV and 12.4 ± 0.6 µM in the data set with CVB5 [3]. The “antiviral effect, compound added during the infection period (in words)” value in the data set on CVB5 [5] (Vero-76, CVB5 m.o.i. 1) is on record as “antiviral effect was kept”. In addition, the “titer reduction, compound added during subsequent steps of the replication cycle (in words)” value in the data set with CVB5 [5] (Vero-76, CVB5 m.o.i. 1, post infection) is “No titer reduction”. Further, the “viral load after cell pre-treatment” value with CVB5 [6] is 7× 10^4 PFU/mL. For the same compound, the “% Late apoptotic cells” value with Vero-76 cells came to 8.3 ± 0.34%; in the data set on Vero-76 cells (setting [8]), 1.03 ± 0.34%. In addition, the “% Live cells” value with Vero-76 cells stood at 72.87 ± 1.21%; in the data set with Vero-76 cells (setting [8]), 94.45 ± 2.55%. Moreover, the figures for the “% Necrotic cells” value in the data set with Vero-76 cells and in the data set on Vero-76 cells (setting [8]) were 12.44 ± 2.35% and 4.12 ± 2.3%, respectively. In addition, the “virucidal effect on CVB5 titer (in words)” value in the data set with CVB5 virions is reported as “no virucidal activity; also recorded: no difference between the titers”. Besides, the CC50 in data set [1] was more than 100 µM; in data set [2] (setting [7]), more than 100 µM; in data set [2] (Vero-76 cells) it was 9 µM; in [4], more than 100 µM. In addition, in the data set with Caco-2 cell monolayers, the “TEER values versus control (in words)” value is reported as “did not significantly differ from control values”.
